{"source": "ChEMBL document CHEMBL1201862", "about": "“PubChem BioAssay data set” (2004)", "target": "Envelope glycoprotein gp160 (Human immunodeficiency virus 1, UniProt Q6QLK5)", "sequence (Q6QLK5 whole entry, the tested form may be a part)": "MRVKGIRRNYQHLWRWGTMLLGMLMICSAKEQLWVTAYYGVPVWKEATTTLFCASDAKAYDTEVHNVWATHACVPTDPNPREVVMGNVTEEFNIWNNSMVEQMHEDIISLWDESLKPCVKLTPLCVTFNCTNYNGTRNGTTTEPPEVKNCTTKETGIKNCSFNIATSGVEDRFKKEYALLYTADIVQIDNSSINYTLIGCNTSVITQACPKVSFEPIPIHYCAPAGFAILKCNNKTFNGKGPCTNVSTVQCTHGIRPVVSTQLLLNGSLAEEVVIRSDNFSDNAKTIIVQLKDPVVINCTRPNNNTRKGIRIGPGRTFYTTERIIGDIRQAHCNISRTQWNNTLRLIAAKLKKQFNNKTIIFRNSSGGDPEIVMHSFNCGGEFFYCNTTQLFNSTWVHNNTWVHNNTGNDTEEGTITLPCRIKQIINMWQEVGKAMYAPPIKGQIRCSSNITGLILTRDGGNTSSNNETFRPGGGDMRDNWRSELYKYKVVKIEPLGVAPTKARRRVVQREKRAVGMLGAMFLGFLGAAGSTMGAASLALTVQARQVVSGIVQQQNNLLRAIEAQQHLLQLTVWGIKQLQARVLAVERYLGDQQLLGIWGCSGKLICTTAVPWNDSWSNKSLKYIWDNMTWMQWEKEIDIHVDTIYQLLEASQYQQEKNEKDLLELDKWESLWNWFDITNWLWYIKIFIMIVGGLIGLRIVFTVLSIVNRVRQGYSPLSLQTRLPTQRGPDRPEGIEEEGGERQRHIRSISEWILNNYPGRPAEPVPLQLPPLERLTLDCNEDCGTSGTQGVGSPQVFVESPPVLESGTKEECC", "assay": "inhibitors of HIV fusion peptide binding, primary screen, biochemical, uHTS, fluorescence dequenching (AID 1986)", "note": "The source made the active and inactive calls. Cut-off read from the data, not from the text of the source: actives have a measured IC50 and inactives only a lower limit."}
{"compound": "CCOC(=O)C1=C(C)N=c2s/c(=C/c3ccc(OCC(=O)O)cc3)c(=O)n2C1c1ccc(SC)cc1", "note": "(configuration not stated)", "values": [{"measurement": "IC50", "result": "12.7 µM (active)"}]}
{"compound": "C=CCOC(=O)C1=C(C)N=c2s/c(=C3\\C(=O)N(CC(=O)O)c4ccccc43)c(=O)n2C1c1ccc(OC)cc1", "note": "(configuration not stated)", "values": [{"measurement": "IC50", "result": "18 µM (active)"}]}
